Several values for one entry are separate records, joined by “and”; a condition that tells them apart may be missing. Equal entries are not always repeated.
Key:
mice [1] = test: Analgesic assay, tail flick response after intracerebral ventrical injection; type: in vivo; details: individual mouse
rats = details: intracerebraventricular or intravenous administration to rats; cited from earlier work
[2] = tested on: N-terminal directed Met-enkephalin antibody; test: Radioimmunoassay, N-terminal directed antibody; type: binding; details: fractions from RP-18; 1.3 g wet weight of chromaffin granules isolated from 30 g of adrenal medulla
Description: (§1) Bovine adrenal glands were obtained from a local slaughterhouse and stored on ice until used (2 hrs). The medullas were dissected out and chromaffin granules prepared by the procedure of Smith and Winkler [Biochem. J., 103, & 80 (1967)]. The isolated chromaffin granules or whole adrenal medullas were homogenized (10:1 V/W) in 1 M acetic acid, 20 mM HCl containing 1μg/ml PMSF and pepstatin. The procedures for extraction, Sephadex column elution and trypsin digestion have been described [Lewis, R. V. et al., Proc. Nat'l. Acad. Sci., U.S.A. 75, & 021 (1978)]. The radioreceptor assay employed neuroblastoma x glioma hybrid cells [Gerber, L. D. et al., Brain Res. 1515, 117 (1978)] with ^3 H-Leuenkephalin as the competing ligand. Radioimmunoassays were performed using a C-terminal directed Leu-enkephalin antibody and a N-terminal directed Met-enkephalin antibody. The characteristics of these antibodies have been described previously [Lewis. R. V., et al. Biochem. Biophys. Res. Commun. 89, 822 (1979)] .
(§2) In order to determine whether fractions 6,7, and 16 were indeed separate entities differing chromatographically from the enkephalins, these fractions were lyophilized, redissolved and rechromatographed. Each opioid peptide eluted at its original position. […]

[3] = tested on: C-terminal directed Leu-enkephalin antibody; test: Radioimmunoassay, C-terminal directed antibody; type: binding; details: fractions from RP-18; 1.3 g wet weight of chromaffin granules isolated from 30 g of adrenal medulla
Description: as §1, §2

mice [4] = details: intracerebraventricular or intravenous administration to mice; cited from earlier work

Row | Substance | Response (mice [1]; Dose 4.5nm, Volume 5nl) | Tail flick response, Post Injection Time 20 (mice [1]; Dose 4.5nm, Volume 5nl) | analgesia (rats) | Radioimmunoassay N-Terminal [2] | Radioimmunoassay C-Terminal [3] | Response (mice [1]; Dose 120 nm, Volume 10nl.) | Tail flick response, Post Injection Time 10 (mice [1]; Dose 120 nm, Volume 10nl.) | Tail flick response, Post Injection Time 2 min. (mice [1]; Dose 120 nm, Volume 10nl.) | analgesia (mice [4])
1 | Beta-endorphin (YGGFMTSEKSQTPLVTLFKNAIIKNAYKKGE; Beta-endorphin; UniProt P01189 237-267, looked up) | Pos. and Neg. | 8 |  |  |  |  |  |  | 
2 | methionine enkephalin [Met Enk] |  |  | weak and short lined anagesia | 1.0 nmoles/fraction | 0.03 nmoles/fraction | Neg. | 6.3 and 5.9 and 5.0 | 4.0 and 4.7 | weak and short lined anagesia
3 | Leu-enkephalin [Leu-enk (std)] |  |  | weak and short lined anagesia | 0.4 nmoles/fraction | 1.0 nmoles/fraction |  |  |  | weak and short lined anagesia

— patent US4264492A, “Enkephalin-like compounds in bovine adrenal medulla” (Hoffmann-La Roche Inc., priority 1979, dated 1981)
